From ChEMBL document CHEMBL1955826, “Acetylenic acid analogues from the edible mushroom Chanterelle (Cantharellus cibarius) and their effects on the gene expression of peroxisome proliferator-activated receptor-gamma target genes” (Bioorg Med Chem Lett, 2012)
Activity calls are given as the source filed them. No cut-off for these calls is given here.

Tests used:
[1] = target: T1, Peroxisome proliferator-activated receptor alpha (Homo sapiens) (UniProt Q07869); test: Agonist activity at human PPARalpha expressed in CHO cells co-transfected with pGL3-PPRE3-TK-luc assessed as transactivation at 20 ug/ml after 24 hrs by firefly luciferase reporter gene assay; type: functional, cell-based
T1 sequence (whole entry): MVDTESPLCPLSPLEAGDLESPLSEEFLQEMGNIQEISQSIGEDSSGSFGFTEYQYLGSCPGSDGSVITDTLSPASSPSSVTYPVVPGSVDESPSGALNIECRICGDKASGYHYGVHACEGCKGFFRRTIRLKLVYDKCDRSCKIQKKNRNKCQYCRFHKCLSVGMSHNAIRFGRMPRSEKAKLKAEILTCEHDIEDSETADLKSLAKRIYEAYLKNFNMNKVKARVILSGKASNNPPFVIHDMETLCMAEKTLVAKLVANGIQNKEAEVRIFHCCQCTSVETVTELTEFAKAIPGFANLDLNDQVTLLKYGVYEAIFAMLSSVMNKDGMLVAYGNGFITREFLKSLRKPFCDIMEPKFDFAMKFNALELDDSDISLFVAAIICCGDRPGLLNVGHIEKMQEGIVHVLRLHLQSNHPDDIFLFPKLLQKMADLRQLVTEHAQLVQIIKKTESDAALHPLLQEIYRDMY

[2] = target: T2, Peroxisome proliferator-activated receptor delta (Homo sapiens) (UniProt Q03181); test: Agonist activity at human PPARdelta expressed in CHO cells co-transfected with pGL3-PPRE3-TK-luc assessed as transactivation at 20 ug/ml after 24 hrs by firefly luciferase reporter gene assay; type: functional, cell-based
T2 sequence (whole entry): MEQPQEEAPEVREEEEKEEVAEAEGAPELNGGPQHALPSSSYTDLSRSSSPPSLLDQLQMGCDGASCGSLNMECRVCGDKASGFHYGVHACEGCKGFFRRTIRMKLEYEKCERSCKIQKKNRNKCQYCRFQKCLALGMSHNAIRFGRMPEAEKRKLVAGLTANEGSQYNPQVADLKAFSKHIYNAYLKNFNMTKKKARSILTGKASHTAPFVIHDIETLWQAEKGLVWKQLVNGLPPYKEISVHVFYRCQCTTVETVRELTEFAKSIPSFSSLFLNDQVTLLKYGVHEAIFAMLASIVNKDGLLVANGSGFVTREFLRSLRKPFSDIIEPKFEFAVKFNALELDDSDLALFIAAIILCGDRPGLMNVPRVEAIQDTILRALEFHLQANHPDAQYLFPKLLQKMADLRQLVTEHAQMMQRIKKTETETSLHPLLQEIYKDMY

[3] = target: T3, Peroxisome proliferator-activated receptor gamma (Homo sapiens, UniProt P37231); test: Agonist activity at human PPARgamma expressed in CHO cells co-transfected with pGL3-PPRE3-TK-luc assessed as transactivation after 24 hrs by firefly luciferase reporter gene assay; type: functional, cell-based
T3 sequence (P37231 whole entry): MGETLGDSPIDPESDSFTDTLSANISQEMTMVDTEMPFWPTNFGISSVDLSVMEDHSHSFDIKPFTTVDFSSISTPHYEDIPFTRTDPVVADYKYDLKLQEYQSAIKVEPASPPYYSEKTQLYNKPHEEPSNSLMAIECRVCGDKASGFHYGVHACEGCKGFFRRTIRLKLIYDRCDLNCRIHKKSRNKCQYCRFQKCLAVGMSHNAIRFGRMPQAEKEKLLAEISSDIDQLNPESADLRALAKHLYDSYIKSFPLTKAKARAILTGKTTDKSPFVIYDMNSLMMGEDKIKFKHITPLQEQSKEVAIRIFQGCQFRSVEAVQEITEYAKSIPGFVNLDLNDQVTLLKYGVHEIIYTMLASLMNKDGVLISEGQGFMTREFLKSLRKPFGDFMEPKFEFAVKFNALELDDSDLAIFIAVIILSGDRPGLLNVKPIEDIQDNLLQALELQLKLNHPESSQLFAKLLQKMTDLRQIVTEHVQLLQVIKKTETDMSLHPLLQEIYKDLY

HepG2 [4] = test: Upregulation of PPARgamma in human HepG2 cells by real-time PCR method; type: functional, cell-based
HepG2 [5] = test: Upregulation of PPARgamma in human HepG2 cells t 0.5 to 12.5 uM by real-time PCR method relative to control; type: functional
[6] = target: T4, Peroxisome proliferator-activated receptor gamma (Homo sapiens) (UniProt P37231); test: Agonist activity at PPARgamma in human HepG2 cells assessed as up-regulation of SCD-1 at 0.5 to 12.5 uM by real-time PCR method; type: functional, cell-based
T4 sequence (whole entry): T3 sequence (P37231 whole entry)

Row | SMILES | Activity [1] | Activity [2] | EC50 [3] [nM] | Activity (HepG2 [4]) | fold change (FC) (HepG2 [5]) | Activity [6]
1 | CCC/C=C\C#C/C=C/C(O)CCCCCCCC(=O)O (centres undefined) | inactive | inactive | > 68400 |  |  | 
2 | CCC/C=C\C#C/C=C/C(=O)CCCCCCCC(=O)O | inactive | inactive | 1880 | Dose-dependent effect | 2.43 | inactive
